In US11702417B2, “Compounds for improving mRNA splicing” (The General Hospital Corporation, priority 2015, dated 2023):

Test system: FD (familial dysautomonia) IKBKAP minigene, exon 20 inclusion, in HEK293T cells
Assay: Primary splicing assay (FD IKBKAP minigene, Firefly/Renilla luciferase reporter in HEK293T)
Assay type: cell-based, human
Conditions: Homo sapiens, HEK-293T, Firefly/Renilla ratio, 24 hours of treatment; for Emax: max efficacy in Primary Assay, kinetin and DMSO as positive and negative controls, read-out: Emax (%); for EC (maximum kinetin efficacy): HEK293T, read-out: ECk (compound concentration at which the maximum kinetin efficacy (200 μM) is reached)

| SMILES | Emax | EC (maximum kinetin efficacy) |
| --- | --- | --- |
| Clc1cc(NCc2ccco2)n2ncnc2n1 [(284)] | 27% |  |
| Clc1cc(NCc2ccncn2)n2ncnc2n1 [(286)] | 38% |  |
| COc1nc2c(NCc3ccncc3)nc(Cl)nc2n1CCO [(287)] | 106% | 7.56 µM |
| Clc1cc(NCc2ccco2)n2ccnc2n1 [(288)] | 56% |  |
| Clc1nc(NCc2nccs2)c2nc(OC3CCC3)[nH]c2n1 [(289)] | 128% | 0.87 µM |
| COCCOc1nc2c(NCc3ccncc3)nc(Cl)nc2[nH]1 [(290)] | 238% | 2.04 µM |
| COCCCOc1nc2c(NCc3ccncc3)nc(Cl)nc2[nH]1 [(291)] | 165% | 3.47 µM |
| CCCOc1nc2c(NCc3ccco3)nc(Cl)nc2[nH]1 [(292)] | 312% | 0.24 µM |
| COCCOc1nc2c(NCc3ccco3)nc(Cl)nc2[nH]1 [(293)] | 169% | 1.78 µM |
| Clc1nc(NCc2ccncc2)c2nc(OC3CCC3)[nH]c2n1 [(294)] | 183% | 0.44 µM |
| Clc1cc(NCc2nccs2)n2ccnc2n1 [(295)] | 54% |  |
| COCCCOc1nc2c(NCc3ccco3)nc(Cl)nc2[nH]1 [(296)] | 178% | 1.81 µM |
| COc1nc2c(NCc3ccco3)nc(Cl)nc2n1CCO [(297)] | 150% | 4.09 µM |
| Clc1cc(NCc2ccncn2)n2ccnc2n1 [(298)] | 21% |  |
| FC(F)(F)COc1nc2c(NCc3ccncc3)nc(Cl)nc2[nH]1 [(299)] | 216% | 1.3 µM |
| COc1nc2c(NCc3ccncn3)nc(Cl)nc2n1CCO [(300)] | 84% | 10 µM |
| Cn1cnc2c(NCc3nccs3)nc(Cl)nc21 [(301)] | 45% |  |
| CSc1nc2c(NCc3ccncn3)nc(Cl)nc2[nH]1 [(303)] | 243% | 1.51 µM |
| Cn1cnc2nc(Cl)nc(NCc3nccs3)c21 [(304)] | 166% | 4.14 µM |
| CCCCOc1nc2c(NCc3ccncc3)nc(Cl)nc2[nH]1 [(305)] | 284% | 0.43 µM |
| CCCOc1nc2c(NCc3ccco3)nc(Cl)nc2n1CCO [(306)] | 247% | 0.7 µM |
| Clc1nc(NCc2ccncc2)c2nc(OCC3CCC3)[nH]c2n1 [(307)] | 292% | 0.21 µM |
| Clc1nc(NCc2ccco2)c2nc(OCC3CCC3)[nH]c2n1 [(308)] | 310% | 0.15 µM |
| OCCOc1nc2c(NCc3ccncn3)nc(Cl)nc2[nH]1 [(309)] | 194% | 2.08 µM |

| SMILES | Emax | EC (maximum kinetin efficacy) |
| --- | --- | --- |
| OCCOc1nc2c(NCc3nccs3)nc(Cl)nc2[nH]1 [(310)] | 191% | 1.5 µM |
| CCCCOc1nc2c(NCc3ccco3)nc(Cl)nc2[nH]1 [(311)] | 221% | 0.56 µM |
| CCCOc1nc2c(NCc3nccs3)nc(Cl)nc2n1CCO [(312)] | 195% | 2.29 µM |
| Cn1cnc2nc(Cl)nc(NCc3ccncc3)c21 [(313)] | 102% | 7.48 µM |
| Cn1cnc2nc(Cl)nc(NCc3ccco3)c21 [(314)] | 198% | 2.31 µM |
| OCCOc1nc2c(NCc3ccncc3)nc(Cl)nc2[nH]1 [(315)] | 165% | 2.52 µM |
| Cn1cnc2nc(Cl)nc(NCc3ccncn3)c21 [(316)] | 108% | 7.09 µM |
| CCCOc1nc2c(NCc3ccncn3)nc(Cl)nc2[nH]1 [(317)] | 223% | 0.16 µM |
| CCCCOc1nc2c(NCc3nccs3)nc(Cl)nc2[nH]1 [(318)] | 186% | 0.54 µM |
| Clc1nc(NCc2ccncn2)c2nc(OC3CCC3)[nH]c2n1 [(321)] | 197% | 1.41 µM |
| Clc1cc(NCc2ccco2)n2nccc2n1 [(322)] | 21% |  |
| Clc1nc(NCc2ccco2)c2nc[nH]c2n1 [(323)] | 26% |  |
| Clc1nc(NCc2nccs2)c2nc(OCC3CCC3)[nH]c2n1 [(324)] | 226% | 0.16 µM |
| Clc1cc(NCc2nccs2)n2nccc2n1 [(325)] | 20% |  |
| Clc1nc(NCc2ccncn2)c2nc(OCC3CCC3)[nH]c2n1 [(326)] | 287% | 0.07 µM |
| CC(C)(C)OC(=O)N1CC(Oc2nc3c(NCc4ccncc4)nc(Cl)nc3[nH]2)C1 [(327)] | 145% | 4.64 µM |
| COCCOc1nc2c(NCc3nccs3)nc(Cl)nc2[nH]1 [(328)] | 184% | 1.79 µM |
| Clc1nc(NCc2nccs2)c2nc(OCc3nccs3)[nH]c2n1 [(329)] | 209% | 1.97 µM |
| Clc1cc(NCc2ccncn2)n2nccc2n1 [(330)] | 20% |  |
| FC(F)(F)COc1nc2c(NCc3ccncn3)nc(Cl)nc2[nH]1 [(331)] | 209% | 0.69 µM |
| Clc1nc(NCc2nccs2)c2nc(OCC3CCCC3)[nH]c2n1 [(332)] | 189% | 0.78 µM |
| Clc1nc(NCc2ccco2)c2nc(OC3CNC3)[nH]c2n1 [(333)] | 51% |  |
| Clc1nc(NCc2ccncc2)c2nc(OCC3CCCC3)[nH]c2n1 [(334)] | 177% | 0.87 µM |
| CCCOc1nc2nc(Cl)nc(NCc3nccs3)c2n1C [(335)] | 35% |  |

| SMILES | Emax | EC (maximum kinetin efficacy) |
| --- | --- | --- |
| CCCOc1nc2nc(Cl)nc(NCc3ccncc3)c2n1C [(336)] | 20% |  |
| CCCOc1nc2nc(Cl)nc(NCc3ccncn3)c2n1C [(337)] | 23% |  |
| Clc1nc(NCc2ccco2)c2nc(OCC3CCCC3)[nH]c2n1 [(338)] | 222% | 1.1 µM |
| CCCOc1nc2c(NCc3ccncc3)nc(Cl)nc2n1CCO [(339)] | 188% | 1.31 µM |
| Clc1nc(NCc2ccncn2)c2nc(OCc3nccs3)[nH]c2n1 [(340)] | 220% | 0.95 µM |
| Clc1nc(NCc2nccs2)c2nc(OCC3CCC3)sc2n1 [(341)] | 155% | 4.16 µM |
| CSc1nc(NCc2nccs2)n2ncnc2n1 [(342)] | 16% |  |
| O=c1[nH]c2c(NCc3nccs3)nc(Cl)nc2n1C1CCCCO1 (stereo not shown) [(344)] | 18.4% |  |
| Clc1nc(NCc2ccccn2)c2cc[nH]c2n1 [(350)] | 49.5% |  |
| COc1nc2c(N(C)Cc3nccs3)nc(Cl)nc2[nH]1 [(351)] | 22% |  |
| Fc1ccccc1CNc1nc(Cl)nc2[nH]cnc12 [(352)] | 25% |  |
| Clc1nc(NCc2cnccn2)c2cc[nH]c2n1 [(353)] | 78% |  |
| Fc1ccccc1CNc1nc(Cl)nc2[nH]ccc12 [(354)] | 57.5% |  |
| Clc1nc(NCc2cccnc2)c2cc[nH]c2n1 [(355)] | 26% |  |
| Clc1nc(NCc2ccccn2)c2nc[nH]c2n1 [(356)] | 17% |  |
| CC(Nc1nc(Cl)nc2[nH]ccc12)c1ccncc1 (stereo not shown) [(359)] | 31.5% |  |
| Cn1cccc1CNc1nc(Cl)nc2[nH]ccc12 [(360)] | 12.3% |  |
| Clc1nc(NCc2ncccn2)c2cc[nH]c2n1 [(361)] | 9.8% |  |
| CN(Cc1nccs1)c1nc(Cl)nc2[nH]ccc12 [(363)] | 53.2% |  |
| CC(Nc1nc(Cl)nc2[nH]ccc12)c1nccs1 (stereo not shown) [(364)] | 18.2% |  |
| COc1nc(NCc2ccco2)c2nc(OC)[nH]c2n1 [(365)] | 22.4% |  |
| CC(Nc1nc(Cl)nc2[nH]cnc12)c1ccncc1 (stereo not shown) [(366)] | 19.2% |  |
| Fc1nc(NCc2nccs2)c2nc[nH]c2n1 [(367)] | 94% |  |
| CC(Nc1nc(Cl)nc2[nH]cnc12)c1nccs1 (stereo not shown) [(368)] | 2.4% |  |

| SMILES | Emax | EC (maximum kinetin efficacy) |
| --- | --- | --- |
| CN(Cc1ccncc1)c1nc(Cl)nc2[nH]ccc12 [(369)] | 57.8% |  |
| COc1nc2c(NC(C)c3nccs3)nc(Cl)nc2[nH]1 (stereo not shown) [(370)] | 33% |  |
| Fc1nc(NCc2ccncc2)c2nc[nH]c2n1 [(371)] | 82% |  |
| Clc1nc(NCc2cncs2)c2cc[nH]c2n1 [(373)] | 25.1% |  |
| COc1nc2c(NCc3cnccn3)nc(Cl)nc2[nH]1 [(374)] | 34.2% |  |
| COc1nc2c(NCc3cscn3)nc(Cl)nc2[nH]1 [(375)] | 134% | 2.18 µM |
| COc1nc2c(NCc3cncs3)nc(Cl)nc2[nH]1 [(376)] | 23.5% |  |
| O=c1[nH]c2nc(Cl)nc(NCc3nccs3)c2[nH]1 [(377)] | 101% | 7.21 µM |
| Clc1nc(NCc2cncs2)c2nc[nH]c2n1 [(378)] | 31.8% |  |
| Fc1nc(NCc2nccs2)c2cc[nH]c2n1 [(379)] | 95% |  |
| Fc1nc(NCc2ccncc2)c2cc[nH]c2n1 [(380)] | 108% | 4.38 µM |
| Clc1nc(NCc2cscn2)c2nc[nH]c2n1 [(381)] | 63.4% |  |
| FC(F)COc1nc2c(NCc3ccncc3)nc(Cl)nc2[nH]1 [(382)] | 193% | 1.31 µM |
| COc1cccc(Nc2nc(Cl)nc3[nH]cnc23)c1 [(383)] | 30.3% |  |
| FC(F)COc1nc2c(NCc3ccco3)nc(Cl)nc2[nH]1 [(384)] | 152% | 1.08 µM |
| COc1nc2c(NCc3nccs3)nc(C#N)nc2[nH]1 [(385)] | 46% |  |
| COc1nc2c(N(CCO)Cc3nccs3)nc(Cl)nc2[nH]1 [(386)] | 69.2% |  |
| FC1(F)CC(COc2nc3c(NCc4ccco4)nc(Cl)nc3[nH]2)C1 [(387)] | 238% | 0.33 µM |
| CC(F)(F)COc1nc2c(NCc3nccs3)nc(Cl)nc2[nH]1 [(388)] | 215% | 0.68 µM |
| CCCOc1nc2c(NCc3cscn3)nc(Cl)nc2[nH]1 [(389)] | 211% | 0.73 µM |
| CC(F)(F)COc1nc2c(NCc3ccco3)nc(Cl)nc2[nH]1 [(390)] | 201% | 0.74 µM |
